Values of other authors in patent US20110212960A1, “NEW COMPOUNDS FOR THE TREATMENT OF CNS DISORDER” (BOEHRINGER INGELHEIM INTERNATIONAL GMBH, priority 2009, published 2011).

Key:
Murine PDE9A = target: T1, Murine PDE9A (Mus musculus, UniProt O70628); conditions: concentrations below 200 micromolar; cited from earlier work
T1 sequence (O70628 1-534): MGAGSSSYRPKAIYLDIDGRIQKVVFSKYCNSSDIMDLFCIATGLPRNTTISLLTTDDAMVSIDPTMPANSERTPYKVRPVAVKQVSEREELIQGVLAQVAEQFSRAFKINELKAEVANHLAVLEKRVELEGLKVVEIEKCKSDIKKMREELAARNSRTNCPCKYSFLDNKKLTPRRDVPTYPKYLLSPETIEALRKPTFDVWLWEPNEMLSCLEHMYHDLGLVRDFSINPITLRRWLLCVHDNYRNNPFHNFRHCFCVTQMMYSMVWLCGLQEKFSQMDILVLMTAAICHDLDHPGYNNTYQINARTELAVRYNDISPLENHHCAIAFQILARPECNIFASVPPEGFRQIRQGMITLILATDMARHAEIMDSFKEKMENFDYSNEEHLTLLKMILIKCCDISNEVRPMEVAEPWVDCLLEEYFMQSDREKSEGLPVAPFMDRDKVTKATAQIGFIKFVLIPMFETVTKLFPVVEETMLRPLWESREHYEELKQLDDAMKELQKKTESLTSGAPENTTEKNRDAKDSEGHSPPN

human PDE9A = human PDE9A (Homo sapiens, UniProt O76083); conditions: concentrations of up to 100 micromolar; cited from earlier work
Sequence of human PDE9A (O76083 whole entry): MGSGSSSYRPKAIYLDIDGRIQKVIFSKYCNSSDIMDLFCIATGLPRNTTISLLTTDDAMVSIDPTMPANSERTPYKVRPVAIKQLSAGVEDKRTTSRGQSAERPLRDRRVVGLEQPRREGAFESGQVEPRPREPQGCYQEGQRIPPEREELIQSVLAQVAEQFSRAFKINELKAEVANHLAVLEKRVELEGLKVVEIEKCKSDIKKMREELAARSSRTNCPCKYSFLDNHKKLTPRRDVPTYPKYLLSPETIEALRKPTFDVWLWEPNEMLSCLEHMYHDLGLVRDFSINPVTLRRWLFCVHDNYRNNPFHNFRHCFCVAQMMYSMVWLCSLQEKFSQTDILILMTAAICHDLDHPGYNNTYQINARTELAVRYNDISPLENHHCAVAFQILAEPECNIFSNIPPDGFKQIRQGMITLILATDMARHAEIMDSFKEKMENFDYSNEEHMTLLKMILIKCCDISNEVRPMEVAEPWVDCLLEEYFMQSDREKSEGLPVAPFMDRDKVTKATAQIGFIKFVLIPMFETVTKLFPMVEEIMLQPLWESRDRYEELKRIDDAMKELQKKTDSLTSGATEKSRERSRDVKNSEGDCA

CC(C)Cn1c(=O)n(C)c(=O)c2[nH]cnc21 [IBMX]
inhibition of murine PDE9A (Murine PDE9A): not inhibited
inhibition on the isolated enzyme (human PDE9A): no inhibition
